Laboratory results as given in patent US9868692B2, “Compounds and compositions for intracellular delivery of therapeutic agents” (MODERNATX, Inc., priority 2015, dated 2018).
One block for each molecule: values may come before it.

What was measured:
hEPO mRNA expression = test: hEPO expression after intravenous administration to mice; assay type: in vivo; conditions: i.v., 0.5 mpk, 3, 6 and 24 hours
Description: Sample formulations of nanoparticle compositions including different lipids are generally first evaluated according to Luc expression in vivo. The activity of several such compositions was further evaluated using an mRNA encoding hEPO. Nanoparticle compositions including Compounds 6, 18, 25, 30, 108-112, 60, and 122, or MC3 were prepared according to Example 2.
(§1) The expression of hEPO and cytokine induction in mice intravenously administered a nanoparticle composition at a dose of 0.5 mpk were measured at 3, 6, and 24 hours. […] The expression of hEPO in mice intramuscularly administered a nanoparticle composition from Table 1B at a dose of 0.01 mpk were measured at 3, 6, and 24 hours. […] (see also FIG. 9.)

[1] = Particle size, polydispersity index (and zeta potential) of nanoparticle compositions, Zetasizer Nano ZS; assay type: physicochemical; conditions: Table 1A formulations
Summary of the method: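 Particle size and polydispersity index were measured by dynamic light scattering on a Zetasizer Nano ZS in 1×PBS. Zeta potential was measured in 15 mM PBS.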

[2] = Encapsulation efficiency of RNA, QUANT-IT RIBOGREEN RNA assay; assay type: physicochemical; conditions: Table 1A formulations
Summary of the method: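 Nanoparticle samples at about 5 μg/mL RNA in TE buffer pH 7.5 were mixed with TE or with a 2% Triton X-100 solution, incubated 15 min at 37 °C, then stained with RiboGreen diluted 1:100. Fluorescence was read at about 480/520 nm and blank-subtracted. Free RNA % was taken as intact over Triton-disrupted fluorescence.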

[3] = Residual lipid level in liver of rats (UPLC-MS quantification); assay type: in vivo; conditions: rat; for concentration at 0.25 h / concentration at 0.5 h / concentration at 1 h / concentration at 2 h / concentration at 4 h / concentration at 8 h / concentration at 24 h / concentration at 48 h: liver; for % Lipid Remaining in liver, 48 h 2 mpk: assuming 300 g rat and 15 g liver
Description: (§2) To pre-weighed tissues, Milli-Q water was added (900 μL water per 100 mg tissue). Tissues were homogenized using an Omni probe homogenizer until uniform. 50 μL of samples and matrix calibration standards were aliquoted into a 96-well plate. 50 μL of blank matrix for matrix blanks and control blanks were aliquoted. 400 μL IS spiking solution were manually added to all samples except matrix blanks. 400 μL of 50:50 ACN:IPA were manually added to matrix blanks. The plate was covered and the samples vortexed and centrifuged for 5 minutes at >3000 rpm. 200 μL of the samples were transferred into a clean 96-well plate for analysis. […] Detection was based on electrospray ionization (ESI) in positive mode using a Sciex API5500 Mass Spectrometer.
(§3) The expression of hEPO in rats intravenously administered a nanoparticle composition at a dose of 0.2 mpk or 2.0 mpk was measured at 6 hours. […] Liver and spleen levels represent the average values calculated for 3 rats in each group.
(§4) The expression of hEPO and lipid levels in the liver and spleen in rats intravenously administered a nanoparticle composition at a dose of 0.2 mpk was measured at various timepoints. […] Lipids were formulated according to the standard MC3 formulation described above.

[4] = Residual lipid level in spleen of rats (UPLC-MS quantification); assay type: in vivo; conditions: rat
Description: as §2, §3, §4

[5] = tested on: luciferase (Luc) mRNA expression; test: Luc expression (total flux) after intramuscular administration; assay type: in vivo, mice; conditions: i.m.
Description: The numbers 1-7 in this figure correspond to MC3, Compounds 168-170, and 173-175 respectively.
Sample formulations including both modified luciferase (Luc) mRNA and H10 mRNA were prepared and administered intramuscularly and the resulting expression and immunogenicity were evaluated simultaneously. Formulations including compounds according to Formula (I), (IA), (II), (IIa), (IIb), (IIc), (IId) or (IIe) were prepared and administered at doses of 0.001 and 0.01 mpk (e.g., doses of 0.0005 mpk of a formulation including Luc mRNA and a formulation including H10 mRNA or doses of 0.005 mpk of a formulation including Luc mRNA and a formulation including H10 mRNA).
Sample formulations including modified luciferase (Luc) mRNA prepared and administered intramuscularly and the resulting expression and immunogenicity were evaluated simultaneously. Formulations including compounds according to Formula (I), (IA), (II), (IIa), (IIb), (IIc), (IId) or (IIe) were prepared and administered at dose of […] 0.01 mpk.
The fluxes measured upon intravenous and intramuscular administration are compared in Table 6. Fluxes are presented as fold increase over that measured for MC3 formulations.

IL-6 = test: Cytokine induction (IL-6) after intravenous administration to mice; assay type: in vivo; conditions: i.v., 0.5 mpk, 6 hours (Table 7)
From the text: The introduction of foreign material into a mammalian body induces an innate immune response that promotes cytokine production. Such immune responses to, for example, nanoparticle compositions including therapeutic and/or prophylactics, are undesirable. The induction of certain cytokines is thus measured to evaluate the […] of nanoparticle compositions. The concentrations of various cytokines in mice upon intravenous administration of nanoparticle compositions presented in Table 1A at a dosage of 0.5 mpk was measured at 6 hours. The standard MC3 formulation and a PBS control were also tested. As is evident in Table 7, IL-6 induction was highest for compositions including Compounds 1, 3, 9, 19, and 26, while IP-10 induction was highest for compositions including Compounds 3, 4, 7, 20, and 26. IL-6 induction was lowest for compositions including Compounds 4, 11, 12, and 28. IP-10 induction was lowest for compositions including Compounds 10, 11, 12, 13, 15, 17, and 18.
as §1

[6] = Lipid clearance: % dose remaining in liver after administration of Luc formulations; assay type: in vivo, mice; conditions: Table 3D
[7] = Clinical chemistry and hematology after intravenous administration to rat; assay type: in vivo; conditions: i.v., 2 mpk, 48 h post dose
Description: Sample formulations of nanoparticle compositions including different lipids were administered intravenously to rat at a dose of 2 mpk. The expression of various clinical markers was evaluated at 48 h post dose and compared to that induced by administration of MC3 formulations or phosphate buffered saline (PBS).
Table 19 summarizes the hEPO expression, IP-10 induction, liver and spleen levels, and alanine aminotransferase (ALT) and aspartate aminotransferase (AST) measured upon intravenous administration of formulations including Compounds 48, 49, and 50 to rat at 0.2 and 2 mpk and hEPO mRNA. hEPO concentrations were measured 6 hours after administration, while cytokine induction and liver and spleen levels were measured 48 hours after administration. hEPO and IP-10 concentrations are presented in pg/ml, while liver levels are provided in ng/g. ALT and AST levels are presented in international units.

[8] = 0.2 mg/kg, intravenous, 0.2 mpk

Compound: CCCCC/C=C\C/C=C\CCCCCCCCN(CCO)CCCCCCCC(=O)OC(CCCCCCCC)CCCCCCCC [Compound 6, Heptadecan-9-yl 8-((2-hydroxyethyl)((9Z,12Z)-octadeca-9,12-dien-1-yl)amino)octanoate]
- hEPO concentrations versus MC3 formulations at each time point (hEPO mRNA expression): higher hEPO concentrations than MC3 formulations

Compound: CCCCCCCCCOC(=O)CCCCCCCN(CCO)CCCCCCCC(=O)OC(CCCCCCCC)CCCCCCCC [Compound 18, Heptadecan-9-yl 8-((2-hydroxyethyl)(8-(nonyloxy)-8-oxooctyl)amino)octanoate]
- PDI [1]: 0.042
- hEPO concentrations versus MC3 formulations at each time point (hEPO mRNA expression): higher hEPO concentrations than MC3 formulations
- EE (%) [2]: 97.50%
- concentration at 0.25 h [3, 8]: 5370 ng/g
- concentration at 0.5 h [3, 8]: 6020 ng/g
- concentration at 1 h [3, 8]: 6050 ng/g
- concentration at 2 h [3, 8]: 2040 ng/g
- concentration at 4 h [3, 8]: 839 ng/g
- concentration at 8 h [3, 8]: 296 ng/g
- concentration at 24 h [3, 8]: 5 ng/g
- concentration at 48 h ([3]; 0.2 mg/kg, intravenous, 0.2 mpk, 48 h, read-out: Lipid level in liver): 5370 ng/g
- % Lipid Remaining in liver, 48 h 2 mpk ([3]; 2 mpk, 48 h): 0.018%
- concentration at 0.25 h [4, 8]: 1230 ng/g
- concentration at 0.5 h [4, 8]: 2020 ng/g
- concentration at 1 h [4, 8]: 3210 ng/g
- concentration at 2 h [4, 8]: 3070 ng/g
- concentration at 4 h [4, 8]: 3770 ng/g
- concentration at 8 h [4, 8]: 1340 ng/g
- concentration at 24 h [4, 8]: 271 ng/g
- concentration at 48 h ([4]; 0.2 mg/kg, intravenous, 0.2 mpk, read-out: Lipid level in spleen): 92 ng/g

Compound: CCCCCCCCCOC(=O)CCCCCCCN(CCCCO)CCCCCCCC(=O)OC(CCCCCCCC)CCCCCCCC [Compound 20, Heptadecan-9-yl 8-((4-hydroxybutyl)(8-(nonyloxy)-8-oxooctyl)amino) octanoate]
- expression at both dose levels ([5]; 0.001 and 0.01 mpk): highest expression
- Total flux (p/s) 0.01 mpk Dose ([5]; 6 hours, Luc mRNA and H10 mRNA, 0.01 mpk (Table 5A)): 9.72E+07 p/s

- IL-6 (IL-6): 94.00
Compound: CCCCCCCCCOC(=O)CCCCCCCN(CCO)CCCCCCCCCC(=O)OC(CCCCCCCC)CCCCCCCC [Compound 23, Heptadecan-9-yl 10-((2-hydroxyethyl)(8-(nonyloxy)-8-oxooctyl)amino) decanoate]

- % Dose Remaining in Liver 6h ([6]; first column of this head): 80%
- % Dose Remaining in Liver 6h ([6]; second column of this head): 54%
- Concentration Alanine aminotransferase [7]: 339
- Concentration Aspartate aminotransferase [7]: 325
- Concentration Lymphocytes [7]: 19976
- Concentration Monocytes [7]: 1429
- Concentration Neutrophils [7]: 4962.5
- % Lipid Remaining in liver, 48 h 2 mpk ([3]; 2 mpk, 48 h): 87%
- lipid remained in the liver after 48 hours ([3]; 48 hours after administration (text to Tables 17 and 18)): greater than 60%
- concentration at 48 h ([3]; intravenous, 0.2 mg/kg, 0.2 mpk, 48 h, average of 3 rats, read-out: Liver level): 25000 ng/g
- concentration at 48 h ([3]; intravenous, 2 mg/kg, 2 mpk, 48 h, average of 3 rats, read-out: Liver level): 285000 ng/g
- concentration at 0.25 h ([3]; iv, 0.2 mg/kg, 0.2 mpk): 13200 ng/g
- concentration at 0.5 h ([3]; iv, 0.2 mg/kg, 0.2 mpk): 20500 ng/g
- concentration at 1 h ([3]; iv, 0.2 mg/kg, 0.2 mpk): 16800 ng/g
- concentration at 2 h ([3]; iv, 0.2 mg/kg, 0.2 mpk): 26000 ng/g
- concentration at 4 h ([3]; iv, 0.2 mg/kg, 0.2 mpk): 24700 ng/g
- concentration at 8 h ([3]; iv, 0.2 mg/kg, 0.2 mpk): 32600 ng/g
- concentration at 24 h ([3]; iv, 0.2 mg/kg, 0.2 mpk): 33000 ng/g
- concentration at 48 h ([3]; iv, 0.2 mg/kg, intravenous, 0.2 mpk, 48 h, read-out: Lipid level in liver): 13200 ng/g
- concentration at 48 h ([3]; iv, 0.2 mg/kg, intravenous, 0.2 mpk, 48 hours, read-out: Liver level): 11300 ng/g
- concentration at 48 h ([3]; iv, 2 mg/kg, intravenous, 2 mpk, 48 hours, read-out: Liver level): 141000 ng/g
- concentration at 48 h ([4]; intravenous, 0.2 mg/kg, 0.2 mpk, average of 3 rats, read-out: Spleen level): 9440 ng/g
- concentration at 48 h ([4]; intravenous, 2 mg/kg, 2 mpk, average of 3 rats, read-out: Spleen level): 129000 ng/g
- concentration at 0.25 h ([4]; iv, 0.2 mg/kg, 0.2 mpk): 4100 ng/g
- concentration at 0.5 h ([4]; iv, 0.2 mg/kg, 0.2 mpk): 6240 ng/g
- concentration at 1 h ([4]; iv, 0.2 mg/kg, 0.2 mpk): 4200 ng/g
- concentration at 2 h ([4]; iv, 0.2 mg/kg, 0.2 mpk): 8610 ng/g
- concentration at 4 h ([4]; iv, 0.2 mg/kg, 0.2 mpk): 11900 ng/g
- concentration at 8 h ([4]; iv, 0.2 mg/kg, 0.2 mpk): 21200 ng/g
- concentration at 24 h ([4]; iv, 0.2 mg/kg, 0.2 mpk): 19100 ng/g
- concentration at 48 h ([4]; iv, 0.2 mg/kg, 0.2 mpk, read-out: Lipid level in spleen): 11600 ng/g
Compound: CCCCCC=CCC=CCCCCCCCCC(CCCCCCCCC=CCC=CCCCCC)OC(=O)CCCN(C)C (stereo not shown) [MC3, heptatriaconta-6,9,28,31-tetraen-19-yl 4-(dimethylamino)butanoate, reference compound]
